According to patent US10544146B2, “Bicyclic compounds and their use as antibacterial agents and β-lactamase inhibitors” (priority 2011, dated 2020):

Columns and labels:
Assay type in all cases: cell-based
[1] = tested on: metallo β-lactamase producing bacteria; assay: MIC in combination with various antibiotics against metallo β-lactamase producing bacteria (Tables 10-12); settings: substance alone
Method: (§1) In the Tables 10-12, compounds of the present invention were tested in combination with various antibiotics against metallo β-lactamase producing bacteria.

A. baumanii JMI 2659 = assay: MIC, antibacterial and synergistic activity; settings: Acinetobacter baumannii, JMI2659, substance alone
Method: as §1

E. coli ATCC 25922 = assay: MIC, antibacterial and synergistic activity; settings: Escherichia coli, ATCC25922, E. coli ATCC 25922, enzyme Wt; substance alone
Method: as §1

E. coli JMI 10767 = assay: MIC, antibacterial and synergistic activity; settings: E. coli JMI 10767, Wt; substance alone
Method: as §1

E. coli JMI 2692 = assay: MIC, antibacterial and synergistic activity; settings: Escherichia coli, JMI2692; E. coli JMI 2692, NDM-1, TEM-1, CTX-M-15; substance alone
Method: as §1

K. pneumo JMI 2693 = assay: MIC, antibacterial and synergistic activity; settings: K. pneumo JMI 2693, NDM-1 (Cpase); substance alone
Method: as §1

K. pneumo JMI 2697 = assay: MIC, antibacterial and synergistic activity; settings: K. pneumo JMI 2697, IMP-4 (Cpase); substance alone
Method: as §1

P. aerug JMI 149 = assay: MIC, antibacterial and synergistic activity; settings: substance alone
Method: as §1

E. coli JMI 4103 = assay: MIC, antibacterial and synergistic activity; settings: Escherichia coli, JMI4103; E. coli JMI 4103, KPC-2, Tem-1, CMY-Type; substance alone
E. coli JMI 4080 = assay: MIC, antibacterial and synergistic activity; settings: Escherichia coli, JMI4080, E. coli JMI 4080, Tem-10; substance alone
K. pneumo JMI 2674 = assay: MIC, antibacterial and synergistic activity; settings: K. pneumo JMI 2674, CTX-M15 (ESBL); substance alone
K. pneumo JMI 4088 = assay: MIC, antibacterial and synergistic activity; settings: substance alone
K. pneumo JMI 4106 = assay: MIC, antibacterial and synergistic activity; settings: substance alone
K. pneumo JMI 2681 = assay: MIC, antibacterial and synergistic activity; settings: substance alone
P. aerug JMI 2686 = assay: MIC, antibacterial and synergistic activity; settings: substance alone
E. coli JMI 10768 = assay: MIC, antibacterial and synergistic activity; settings: E. coli JMI 10768, CTX-M15 (Weak ESBL); substance alone
E. coli JMI 10770 = assay: MIC, antibacterial and synergistic activity; settings: E. coli JMI 10770, CTX-M15 (Hyper ESBL); substance alone
E. coli JMI 11103 = assay: MIC, antibacterial and synergistic activity; settings: substance alone
[2] = Citrobacter freundii, Citrobacter freundii isolate 49469, NDM-1
[3] = Enterobacter cloacae, Enterobacter cloacae isolate 4, VIM-6
[4] = Enterobacter cloacae, Enterobacter cloacae isolate 10, IMP-26
[5] = Enterobacter cloacae, Enterobacter cloacae isolate 25, IMP-4
[6] = Enterobacter cloacae, Enterobacter cloacae isolate 1068, VIM-2
[7] = Enterobacter cloacae, Enterobacter cloacae isolate 1280, VIM-5
[8] = Enterobacter cloacae, Enterobacter cloacae isolate 1471, VIM-1
[9] = Enterobacter cloacae, Enterobacter cloacae isolate 1874, IMP-21
[10] = Enterobacter cloacae, Enterobacter cloacae isolate 3686, IMP-1
[11] = Enterobacter cloacae, Enterobacter cloacae isolate 53477, NDM-1
[12] = Escherichia coli, Escherichia coli isolate 13, IMP-1
[13] = Escherichia coli, Escherichia coli isolate 17, NDM-1
[14] = Escherichia coli, Escherichia coli isolate 49, NDM-1
[15] = Escherichia coli, Escherichia coli isolate 53749, NDM-1
[16] = Klebsiella aerogenes, Enterobacter aerogenes isolate 8397, VIM-1
[17] = Klebsiella aerogenes, Enterobacter aerogenes isolate 47683, VIM-12
[18] = Klebsiella oxytoca, Klebsiella oxytoca isolate 24825, IMP-26
[19] = Klebsiella oxytoca, Klebsiella oxytoca isolate 31141, VIM-23
[20] = Klebsiella pneumoniae, Klebsiella pneumoniae isolate 16, VIM-5
[21] = Klebsiella pneumoniae, Klebsiella pneumoniae isolate 38, NDM-1
[22] = Providencia stuartii, Providencia stuartii isolate 26582, VIM-1
[23] = Serratia marcescens, Serratia marcescens isolate 35, IMP-4
[24] = Serratia marcescens, Serratia marcescens isolate 36098, IMP-19
[25] = K. pneumo JMI 4088, KPC-3 (Cpase)
[26] = K. pneumo JMI 4106, KPC-3, TEM-1, SHV-12, SHV-141
[27] = P. aerug JMI 2686, KPC-2 (Cpase)

## O=C(NO[C@H]1CCCNC1)[C@@H]1CC[C@@H]2CN1C(=O)N2OS(=O)(=O)O [Ex. 4, (2S,5R)-7-Oxo-N-[(3S)-piperidin-3-yloxy]-6-(sulfooxy)-1,6-diazabicyclo[3.2.1]octane-2-carboxamide]
[1]; [2]
  MIC: > 64 µg/mL
[1]; [3]
  MIC: 64 µg/mL
[1]; [4]
  MIC: 64 µg/mL
[1]; [5]
  MIC: 4 µg/mL
[1]; [6]
  MIC: 4 µg/mL
[1]; [7]
  MIC: 4 µg/mL
[1]; [8]
  MIC: 4 µg/mL
[1]; [9]
  MIC: 2 µg/mL
[1]; [10]
  MIC: 4 µg/mL
[1]; [11]
  MIC: 8 µg/mL
[1]; [12]
  MIC: 2 µg/mL
[1]; [13]
  MIC: 2 µg/mL
[1]; [14]
  MIC: 2 µg/mL
[1]; [15]
  MIC: 2 µg/mL
[1]; [16]
  MIC: > 64 µg/mL
[1]; [17]
  MIC: > 64 µg/mL
[1]; [18]
  MIC: > 64 µg/mL
[1]; [19]
  MIC: > 64 µg/mL
[1]; [20]
  MIC: > 64 µg/mL
[1]; [21]
  MIC: > 64 µg/mL
[1]; [22]
  MIC: > 64 µg/mL
[1]; [23]
  MIC: > 64 µg/mL
[1]; [24]
  MIC: > 64 µg/mL

## C[C@H]1[C@H](NC(=O)/C(=N\OC(C)(C)C(=O)O)c2csc(N)n2)C(=O)N1S(=O)(=O)O [Aztreonam, aztreonam]
A. baumanii JMI 2659; A. baumanii JMI 2659, Ges-14 (Cpase)
  MIC: 512 µg/mL
A. baumanii JMI 2659; A. baumanii JMI 2659, enzyme Ges-14 (Cpase)
  MIC: 512 µg/mL
E. coli ATCC 25922
  MIC: 0.25 µg/mL
E. coli JMI 10767
  MIC alone: ≤1 µg/mL
E. coli JMI 2692
  MIC: > 512 µg/mL
K. pneumo JMI 2693
  MIC: > 512 µg/mL
K. pneumo JMI 2697
  MIC: > 512 µg/mL
P. aerug JMI 149; P. aerug JMI 149, Bla+++D+
  MIC alone: 512 µg/mL
P. aerug JMI 149; P. aerug JMI 149, enzyme Bla+++D+
  MIC: 512 µg/mL
E. coli JMI 4103
  MIC: > 512 µg/mL
E. coli JMI 4080
  MIC: 64 µg/mL
K. pneumo JMI 2674
  MIC alone: 32 µg/mL
K. pneumo JMI 4088; [25]
  MIC: > 512 µg/mL
  MIC alone: 512 µg/mL
K. pneumo JMI 4088; K. pneumo JMI 4088, enzyme KPC-3 (Cpase)
  MIC alone: 512 µg/mL
K. pneumo JMI 4106; [26]
  MIC: > 512 µg/mL
  MIC alone: 512 µg/mL
K. pneumo JMI 4106; K. pneumo JMI 4106, enzyme KPC-3, TEM-1, SHV-12, SHV-141
  MIC alone: 512 µg/mL
K. pneumo JMI 2681; K. pneumo JMI 2681, Oxa-48 (Cpase)
  MIC: 512 µg/mL
K. pneumo JMI 2681; K. pneumo JMI 2681, enzyme Oxa-48 (Cpase)
  MIC: 512 µg/mL
P. aerug JMI 2686; [27]
  MIC: 512 µg/mL
  MIC alone: >512 µg/mL
P. aerug JMI 2686; P. aerug JMI 2686, enzyme KPC-2 (Cpase)
  MIC: 512 µg/mL
E. coli JMI 10768
  MIC alone: 8 µg/mL
E. coli JMI 10770
  MIC alone: 64 µg/mL
E. coli JMI 11103; E. coli JMI 11103, CTX-M15 (Intermediate ESBL)
  MIC alone: 16 µg/mL
E. coli JMI 11103; Escherichia coli, JMI11103, E. coli JMI 11103, CTX-M15 (Intermediate ESBL)
  MIC: 32 µg/mL
[1]; [5]
  MIC: 64 µg/mL
[1]; [7]
  MIC: 8 µg/mL
[1]; [8]
  MIC: 64 µg/mL
[1]; [9]
  MIC: ≤ 0.12 µg/mL
[1]; [10]
  MIC: 32 µg/mL
[1]; [12]
  MIC: 16 µg/mL
[1]; [17]
  MIC: 4 µg/mL
[1]; [19]
  MIC: 8 µg/mL
[1]; [21]
  MIC: 64 µg/mL
[1]; [22]
  MIC: 32 µg/mL

## CC(=O)NNC(=O)[C@@H]1CC[C@@H]2CN1C(=O)N2OS(=O)(=O)O [Ex. 40, (2S,5R)-N′-acetyl-7-oxo-6-(sulfooxy)-1,6-diazabicyclo[3.2.1]octane-2-carbohydrazide]
[1]; [2]
  MIC: > 64 µg/mL
[1]; [3]
  MIC: 61 µg/mL
[1]; [4]
  MIC: 61 µg/mL
[1]; [5]
  MIC: 4 µg/mL
[1]; [6]
  MIC: 4 µg/mL
[1]; [7]
  MIC: 4 µg/mL
[1]; [8]
  MIC: 2 µg/mL
[1]; [9]
  MIC: 2 µg/mL
[1]; [10]
  MIC: 2 µg/mL
[1]; [11]
  MIC: 2 µg/mL
[1]; [12]
  MIC: 1 µg/mL
[1]; [13]
  MIC: 2 µg/mL
[1]; [14]
  MIC: 2 µg/mL
[1]; [15]
  MIC: 2 µg/mL
[1]; [16]
  MIC: > 64 µg/mL
[1]; [17]
  MIC: > 64 µg/mL
[1]; [18]
  MIC: > 64 µg/mL
[1]; [19]
  MIC: > 64 µg/mL
[1]; [20]
  MIC: > 64 µg/mL
[1]; [21]
  MIC: > 64 µg/mL
[1]; [22]
  MIC: > 64 µg/mL
[1]; [23]
  MIC: > 64 µg/mL
[1]; [24]
  MIC: > 64 µg/mL

## O=C(NO[C@H]1CCNC1)[C@@H]1CC[C@@H]2CN1C(=O)N2OS(=O)(=O)O [Ex. 2, (2S,5R)-7-Oxo-N-[(3S)-pyrrolidin-3-yloxy]-6-(sulfooxy)-1,6-diazabicyclo[3.2.1]octane-2-carboxamide]
[1]; [2]
  MIC: > 64 µg/mL
[1]; [3]
  MIC: 64 µg/mL
[1]; [4]
  MIC: 64 µg/mL
[1]; [5]
  MIC: 8 µg/mL
[1]; [6]
  MIC: 8 µg/mL
[1]; [7]
  MIC: 4 µg/mL
[1]; [8]
  MIC: 4 µg/mL
[1]; [9]
  MIC: 4 µg/mL
[1]; [10]
  MIC: 4 µg/mL
[1]; [11]
  MIC: 4 µg/mL
[1]; [12]
  MIC: 16 µg/mL
[1]; [13]
  MIC: 4 µg/mL
[1]; [14]
  MIC: 4 µg/mL
[1]; [15]
  MIC: 4 µg/mL
[1]; [16]
  MIC: > 64 µg/mL
[1]; [17]
  MIC: > 64 µg/mL
[1]; [18]
  MIC: > 64 µg/mL
[1]; [19]
  MIC: > 64 µg/mL
[1]; [20]
  MIC: > 64 µg/mL
[1]; [21]
  MIC: > 64 µg/mL
[1]; [22]
  MIC: > 64 µg/mL
[1]; [23]
  MIC: > 64 µg/mL
[1]; [24]
  MIC: > 64 µg/mL
